In brackets after ≈: the same amount, converted by molar mass.
Legend:
Assay type in all cases: cell-based
[1] = tested on: Escherichia coli ATCC 25922; assay: Broth microdilution MIC, E. coli ATCC 25922 (MHIIB w & w/o 4 mM EDTA); details: broth microdilution, 37° C., 20 hours; for MIC: Escherichia coli, ATCC25922, without EDTA, read-out: MIC E. coli ATCC 25922; for MIC E. coli ATCC 25922 + 4 mM EDTA: with 4 mM EDTA
Procedure, shortened: (§1)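 Broth microdilution in strain-specific test medium with ~5.0×10^5 cfu/ml inoculum, 1% DMSO and two-fold compound dilutions from 64 to 0.0625 μg/ml. Plates were held 20 hours at 37° C in ambient air. S. pneumoniae colonies were grown beforehand on blood agar in 5% CO2.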

[2] = tested on: Staphylococcus aureus ATCC 29213 (MSSA); assay: Broth microdilution MIC, S. aureus ATCC 29213 (MSSA); details: broth microdilution, 37° C., 20 hours, read-out: MIC S. aureus ATCC 29213 (MSSA)
Procedure, shortened: as §1

[3] = tested on: Enterococcus faecium ATCC 700221 (VRE); assay: Broth microdilution MIC, E. faecium ATCC 700221 (VRE); parameters: MIC E. faecium ATCC 700221 (VRE): unit: ug/mL; details: broth microdilution, 37° C., 20 hours; for MIC: Enterococcus faecium, read-out: MIC E. faecium ATCC 700221 (VRE)
Procedure, shortened: as §1

[4] = tested on: Streptococcus pneumoniae ATCC 49619; assay: Broth microdilution MIC, S. pneumoniae ATCC 49619; details: ATCC49619, broth microdilution, 37° C., 20 hours, read-out: MIC S. pneumoniae ATCC 49619
Procedure, shortened: as §1

[5] = tested on: Staphylococcus aureus NRS384 (MRSA); assay: Broth microdilution MIC, S. aureus NRS384 (MRSA); parameters: MIC NRS 384 (MRSA): unit not given here; details: broth microdilution, 37° C., 20 hours; for MIC: Staphylococcus aureus, read-out: MIC NRS 384 (MRSA)
Procedure, shortened: as §1

[6] = tested on: Bacillus subtilis ATCC 6633; assay: Broth microdilution MIC, B. subtilis ATCC 6633; details: ATCC6633, broth microdilution, 37° C., 20 hours, read-out: MIC B. subtilis ATCC 6633
Procedure, shortened: as §1

[7] = tested on: Enterococcus faecalis ATCC 29212; assay: Broth microdilution MIC, E. faecalis ATCC 29212; details: ATCC29212, broth microdilution, 37° C., 20 hours, read-out: MIC E. faecalis ATCC 29212
Procedure, shortened: as §1

Row | MIC [1] [µg/mL] | MIC E. coli ATCC 25922 + 4 mM EDTA [1] | MIC [2] [µg/mL] | MIC [3] [µg/mL] | MIC [4] [µg/mL] | MIC [5] [µg/mL] | MIC [6] [µg/mL] | MIC [7] [µg/mL] | MIC E. faecium ATCC 700221 (VRE) [3] | MIC NRS 384 (MRSA) [5] | Compound
1 | > 64 | 64 µg/mL | 16 | 8 | 4 | 16 | 4 | 16 | – | – | Cl.Cl.O=c1[nH]c(NCc2ccc(Cl)c(Cl)c2)nc2cnn(C3CCN(CC4CCCCN4)CC3)c12 (stereo not drawn) [Compound 249, 5-((3,4-dichlorobenzyl)amino)-1-(1-(piperidin-2-ylmethyl)piperidin-4-yl)-1H-pyrazolo[4,3-d]pyrimidin-7(6H)-one dihydrochloride]
2 | > 64 | >64. ug/ml | 4 | – | 8 | – | 1 | 4 | 4/1 | 2/2 | Cl.O=c1[nH]c(NCc2ccc(Cl)c(Cl)c2)nc2cnn(CCOc3cccnc3)c12 [Compound 170, 5-((3,4-dichlorobenzyl)amino)-1-(2-(pyridin-3-yloxy)ethyl)-1H-pyrazolo[4,3-d]pyrimidin-7(6H)-one hydrochloride]
3 | > 64 | >64 µg/mL | 4 | 1 | 2 | 2 | 1 | 4 | – | – | COc1ccnc(C(=O)N2CCC(n3ncc4nc(NCc5ccc(Cl)c(Cl)c5)[nH]c(=O)c43)CC2)c1.Cl [Compound 263, 5-((3,4-dichlorobenzyl)amino)-1-(1-(4-methoxypicolinoyl)piperidin-4-yl)-1H-pyrazolo[4,3-d]pyrimidin-7(6H)-one hydrochloride]
4 | > 64 | 16 µg/mL | 2 | 2 | 4 | 2 | 1 | 4 | – | – | Cl.Cl.O=c1[nH]c(NCc2ccc(Cl)c(Cl)c2)nc2cnn(C3CCN(Cc4ccccn4)CC3)c12 [Compound 244, 5-((3,4-Dichlorobenzyl)amino)-1-(1-(pyridin-2-ylmethyl)piperidin-4-yl)-1H-pyrazolo[4,3-d]pyrimidin-7(6H)-one dihydrochloride]
5 | > 64 | >64 µg/mL | > 64 | 64 (≈ 156 µM) | 16 (≈ 39 µM) | > 64 | 8 (≈ 19.5 µM) | > 64 | – | – | COCCCCCn1cc2nc(NCc3ccc(Cl)c(Cl)c3)[nH]c(=O)c2n1 [Compound 133, 5-((3,4-Dichlorobenzyl)amino)-2-(5-methoxypentyl)-2H-pyrazolo[4,3-d]pyrimidin-7(6H)-one]
6 | > 64 | >64 µg/mL | > 64 | > 64 | 64 (≈ 162 µM) | > 64 | 64 (≈ 162 µM) | > 64 | – | – | CN(C)C(=O)c1nn(C)c2c(=O)[nH]c(NCc3ccc(Cl)c(Cl)c3)nc12 [Compound 43, 5-((3,4-Dichlorobenzyl)amino)-N,N, 1-trimethyl-7-oxo-6,7-dihydro-1H-pyrazolo[4,3-d]pyrimidine-3-carboxamide]
7 | > 64 | >64 µg/mL | 64 (≈ 175 µM) | 32 (≈ 87.4 µM) | 16 (≈ 43.7 µM) | 32 (≈ 87.4 µM) | 16 (≈ 43.7 µM) | 32 (≈ 87.4 µM) | – | – | O=c1[nH]c(NCc2ccc(Cl)c(Cl)c2)nc2cn(C3COC3)nc12 [Compound 143, 5-((3,4-Dichlorobenzyl)amino)-2-(oxetan-3-yl)-2H-pyrazolo[4,3-d]pyrimidin-7(6H)-one]
8 | > 64 | >64 µg/mL | 8 | 4 | 4 | 8 | 2 | 8 | – | – | Cl.O=C(c1cccnc1)N1CCC(n2ncc3nc(NCc4ccc(Cl)c(Cl)c4)[nH]c(=O)c32)C1 (stereo not drawn) [Compound 258, 5-((3,4-Dichlorobenzyl)amino)-1-(1-nicotinoylpyrrolidin-3-yl)-1H-pyrazolo[4,3-d]pyrimidin-7(6H)-one]
9 | > 64 | >64 µg/mL | > 64 | > 64 | > 64 | > 64 | > 64 | > 64 | – | – | COc1ccc(CNc2nc3cnn(C)c3c(=O)[nH]2)cc1OC [Compound 32, 5-((3,4-Dimethoxybenzyl)amino)-1-methyl-1H-pyrazolo[4,3-d]pyrimidin-7(6H)-one]
10 | > 64 | >64 µg/mL | 16 (≈ 40.4 µM) | 16 (≈ 40.4 µM) | 16 (≈ 40.4 µM) | 8 (≈ 20.2 µM) | 8 (≈ 20.2 µM) | > 64 | – | – | CCOCCc1nn(C)c2c(=O)[nH]c(NCc3ccc(Cl)c(Cl)c3)nc12 [Compound 49, 5-((3,4-dichlorobenzyl)amino)-3-(2-ethoxyethyl)-1-methyl-1H-pyrazolo[4,3-d]pyrimidin-7(6H)-one]
11 | > 64 | 64 µg/mL | 4 | – | 4 | 4 | 1 | 4 | 4/2 | – | Cl.O=c1[nH]c(NCc2ccc(Cl)c(Cl)c2)nc2cnn(CCN3C[C@@H]4C[C@H]3CO4)c12 [Compound 68, 1-(2-((1 S,4S)-2-oxa-5-azabicyclo[2.2.1]heptan-5-yl)ethyl)-5-((3,4-dichlorobenzyl)amino)-1H-pyrazolo[4,3-d]pyrimidin-7(6H)-one hydrochloride]
12 | > 64 | >64 µg/mL | 4 | – | 4 | – | 1 | 4 | 2/2 | 2/2 | Cl.O=c1[nH]c(NCc2ccc(Cl)c(Cl)c2)nc2cnn(CCc3cccnc3)c12 [Compound 110, 5-((3,4-Dichlorobenzyl)amino)-1-(2-(pyridin-3-yl)ethyl)-1H-pyrazolo[4,3-d]pyrimidin-7(6H)-one hydrochloride]
13 | > 64 | >64 µg/mL | 8 | 4 | 4 | 8 | 4 | 4 | – | – | Cl.O=C(c1nnc[nH]1)N1CCC(n2ncc3nc(NCc4ccc(Cl)c(Cl)c4)[nH]c(=O)c32)CC1 [Compound 265, 1-(1-(4H-1,2,4-triazole-3-carbonyl)piperidin-4-yl)-5-((3,4-dichlorobenzyl)amino)-1H-pyrazolo[4,3-d]pyrimidin-7(6H)-one hydrochloride]
14 | > 64 | >64 µg/mL | 4 (≈ 8.84 µM) | 2 (≈ 4.42 µM) | 16 (≈ 35.4 µM) | 2 (≈ 4.42 µM) | 1 (≈ 2.21 µM) | > 64 | – | – | CC(C)OC(=O)CCCCn1ncc2nc(NCc3ccc(Cl)c(Cl)c3)[nH]c(=O)c21 [Compound 204, isopropyl 5-(5-((3,4-dichlorobenzyl)amino)-7-oxo-6,7-dihydro-1H-pyrazolo[4,3-d]pyrimidin-1-yl)pentanoate]
15 | > 64 | >64 µg/mL | 16 (≈ 34.4 µM) | 4 (≈ 8.6 µM) | 4 (≈ 8.6 µM) | 16 (≈ 34.4 µM) | 4 (≈ 8.6 µM) | 8 (≈ 17.2 µM) | – | – | COCCN1CC(Cn2ncc3nc(NCc4ccc(Cl)c(Cl)c4)[nH]c(=O)c32)CC1=O (stereo not drawn) [Compound 176, 5-((3,4-dichlorobenzyl)amino)-1-((1-(2-methoxyethyl)-5-oxopyrrolidin-3-yl)methyl)-1H-pyrazolo[4,3-d]pyrimidin-7(6H)-one]

Source: patent publication US10723741B1, “DNA polymerase IIIC inhibitors and use thereof” (Acurx Pharmaceuticals, LLC, priority 2018, dated 2020)
